Data reported in PubChem BioAssay (NCI).
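Five concentrations, 48 hours, 96-well plates. GI50 is the concentration that inhibits growth by half. TGI marks complete inhibition of growth.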

Assays:
Test in all cases: NCI tumour cell line growth inhibition, 48 h
[1] = system: K-562 leukemia
[2] = system: SK-MEL-5 melanoma
[3] = system: SW-620 colon
[4] = system: OVCAR-8 ovarian
[5] = system: SNB-75 CNS
[6] = system: OVCAR-5 ovarian
[7] = system: HCT-116 colon
[8] = system: SF-539 CNS
[9] = system: IGROV1 ovarian
[10] = system: OVCAR-4 ovarian
[11] = system: T-47D breast
[12] = system: A549 NSCLC
[13] = system: M14 melanoma
[14] = system: CCRF-CEM leukemia
[15] = system: NCI-H460 lung
[16] = system: SR leukemia
[17] = system: DU-145 prostate
[18] = system: UACC-257 melanoma
[19] = system: ACHN renal
[20] = system: SF-295 CNS
[21] = system: COLO 205 colon
[22] = system: HL-60(TB) leukemia
[23] = system: SK-MEL-28 melanoma
[24] = system: BT-549 breast
[25] = system: SNB-19 CNS
[26] = system: TK-10 renal
[27] = system: MDA-MB-231 breast
[28] = system: MOLT-4 leukemia
[29] = system: MDA-MB-435
[30] = system: HOP-62 NSCLC
[31] = system: NCI/ADR-RES ovarian
[32] = system: U251 CNS
[33] = system: PC-3 prostate
[34] = system: HCT-15 colon
[35] = system: SK-MEL-2 melanoma
[36] = system: OVCAR-3 ovarian
[37] = system: UO-31 renal
[38] = system: A498 renal
[39] = system: UACC-62 melanoma
[40] = system: HS 578T breast
[41] = system: 786-0 renal
[42] = system: RXF 393 renal
[43] = system: NCI-H226 lung
[44] = system: SF-268 CNS
[45] = system: HCC-2998 colon
[46] = system: EKVX NSCLC
[47] = system: LOX IMVI melanoma
[48] = system: HOP-92 NSCLC
[49] = system: MALME-3M melanoma
[50] = system: SN12C renal
[51] = system: SK-OV-3 ovarian
[52] = system: RPMI-8226 leukemia
[53] = system: HT29 colon
[54] = system: NCI-H23 lung
[55] = system: KM12 colon
[56] = system: MCF7 breast
[57] = system: NCI-H522 lung
[58] = system: CAKI-1 renal

O=c1oc2ccc(I)cc2c(=O)n1-c1ccc(I)cc1F
GI50 [1]: 0.436 µM | TGI [1]: > 100 µM | GI50 [2]: 0.258 µM | TGI [2]: 0.747 µM | GI50 [3]: 0.821 µM | TGI [3]: 13.1 µM | GI50 [4]: 0.704 µM | TGI [4]: > 31.7 µM | GI50 [5]: 0.32 µM | TGI [5]: 2.57 µM | GI50 [6]: 3.93 µM | TGI [6]: > 100 µM | GI50 [7]: 0.472 µM | TGI [7]: 2.27 µM | GI50 [8]: 0.484 µM | TGI [8]: 4.29 µM | GI50 [9]: 0.406 µM | TGI [9]: 20.8 µM | GI50 [10]: 0.349 µM | TGI [10]: 18.4 µM | GI50 [11]: 0.298 µM | TGI [11]: 3.49 µM | GI50 [12]: 3 µM | TGI [12]: > 51.8 µM | GI50 [13]: 0.545 µM | TGI [13]: 5.87 µM | GI50 [14]: 1.89 µM | TGI [14]: 10.8 µM | GI50 [15]: 0.429 µM | TGI [15]: 10.3 µM | GI50 [16]: 0.61 µM | TGI [16]: > 38.2 µM | GI50 [17]: 0.684 µM | TGI [17]: 17.9 µM | GI50 [18]: 0.522 µM | TGI [18]: 5.6 µM | GI50 [19]: 0.616 µM | TGI [19]: 11.7 µM | GI50 [20]: 1.77 µM | TGI [20]: 3.54 µM | GI50 [21]: 4.88 µM | TGI [21]: 17.8 µM | GI50 [22]: 0.564 µM | GI50 [23]: 0.358 µM | TGI [23]: 1.9 µM | GI50 [24]: 0.403 µM | TGI [24]: 2.02 µM | GI50 [25]: 0.399 µM | TGI [25]: > 100 µM | GI50 [26]: 1.42 µM | TGI [26]: 11.8 µM | GI50 [27]: 0.579 µM | TGI [27]: 6.14 µM | GI50 [28]: 1.35 µM | TGI [28]: 4.94 µM | GI50 [29]: 0.586 µM | TGI [29]: 5.6 µM | GI50 [30]: 2.36 µM | TGI [30]: 9.46 µM | GI50 [31]: 0.568 µM | TGI [31]: 5.69 µM | GI50 [32]: 0.612 µM | TGI [32]: > 45.3 µM | GI50 [33]: 2.23 µM | TGI [33]: 7.35 µM | GI50 [34]: 0.704 µM | TGI [34]: 10.5 µM | GI50 [35]: 0.391 µM | TGI [35]: 2.55 µM | GI50 [36]: 0.44 µM | TGI [36]: 9.75 µM | GI50 [37]: 0.268 µM | TGI [37]: 2.41 µM | GI50 [38]: 0.166 µM | TGI [38]: 0.546 µM | GI50 [39]: 0.279 µM | TGI [39]: 1.11 µM | GI50 [40]: 0.324 µM | TGI [40]: 4.78 µM | GI50 [41]: 2.21 µM | TGI [41]: 6.49 µM | GI50 [42]: 0.861 µM | TGI [42]: 4.16 µM | GI50 [43]: 1.47 µM | TGI [43]: 5.88 µM | GI50 [44]: 0.511 µM | TGI [44]: 7.64 µM | GI50 [45]: 2.8 µM | TGI [45]: 11.1 µM | GI50 [46]: 1.15 µM | TGI [46]: 8.21 µM | GI50 [47]: 0.532 µM | TGI [47]: 4.66 µM | GI50 [48]: 0.169 µM | TGI [48]: 0.544 µM | GI50 [49]: 0.36 µM | TGI [49]: 2.54 µM | GI50 [50]: 0.404 µM | TGI [50]: 6.49 µM | GI50 [51]: 0.601 µM | TGI [51]: 2.71 µM | GI50 [52]: 0.366 µM | TGI [52]: 1.99 µM | GI50 [53]: 3.43 µM | TGI [53]: 15.3 µM | GI50 [54]: 0.476 µM | TGI [54]: 4.39 µM | GI50 [55]: 2.2 µM | TGI [55]: 5.23 µM | GI50 [56]: 1.08 µM | TGI [56]: 11.3 µM | GI50 [57]: 0.327 µM | TGI [57]: 4.52 µM | GI50 [58]: 0.308 µM | TGI [58]: 2.53 µM

Cc1cnc(-c2ccc(-c3ccc(NC(=O)Nc4cccc(C(F)(F)F)c4)cc3F)c3c2C(=O)NC3)[nH]1
GI50 [1]: 1.43 µM | TGI [1]: 31.9 µM | GI50 [2]: 23.6 µM | TGI [2]: > 65.6 µM | GI50 [3]: 0.081 µM | TGI [3]: 17.4 µM | GI50 [4]: 14.6 µM | TGI [4]: > 57.8 µM | GI50 [5]: 1.29 µM | TGI [5]: 25.5 µM | GI50 [6]: 28.4 µM | TGI [6]: > 59.8 µM | GI50 [7]: 0.548 µM | TGI [7]: 23.8 µM | GI50 [8]: 0.251 µM | TGI [8]: 22.7 µM | GI50 [9]: 1.97 µM | TGI [9]: 32.2 µM | GI50 [10]: 8.96 µM | TGI [10]: 23.8 µM | GI50 [11]: 12.7 µM | TGI [11]: 33.5 µM | GI50 [12]: 7.49 µM | TGI [12]: > 47.9 µM | GI50 [13]: 0.624 µM | TGI [13]: 32.9 µM | GI50 [14]: 1.31 µM | TGI [14]: 18.7 µM | GI50 [15]: 0.304 µM | TGI [15]: 26.8 µM | GI50 [16]: 0.0862 µM | TGI [16]: > 59.9 µM | GI50 [17]: 11.5 µM | TGI [17]: 35.6 µM | GI50 [18]: 13.5 µM | TGI [18]: > 66 µM | GI50 [19]: 1.97 µM | TGI [19]: > 52.8 µM | GI50 [20]: 4.06 µM | TGI [20]: 33.6 µM | GI50 [21]: 0.0469 µM | TGI [21]: 20.2 µM | GI50 [22]: 43.4 µM | TGI [22]: > 100 µM | GI50 [23]: 11.5 µM | TGI [23]: 37.7 µM | GI50 [24]: 10.8 µM | TGI [24]: 49.1 µM | GI50 [25]: 17.4 µM | TGI [25]: > 53.4 µM | GI50 [26]: 15.5 µM | TGI [26]: > 58.5 µM | GI50 [27]: 26 µM | TGI [27]: > 57.3 µM | GI50 [28]: 1.37 µM | TGI [28]: > 53.4 µM | GI50 [29]: 12.6 µM | TGI [29]: > 47.5 µM | GI50 [30]: 3.55 µM | TGI [30]: > 50 µM | GI50 [31]: 31.4 µM | TGI [31]: > 100 µM | GI50 [32]: 11.3 µM | TGI [32]: 32 µM | GI50 [33]: 15.7 µM | TGI [33]: > 50.6 µM | GI50 [34]: 6.19 µM | TGI [34]: 33.6 µM | GI50 [35]: 14.9 µM | TGI [35]: 36.8 µM | GI50 [36]: 14.4 µM | TGI [36]: 36.7 µM | GI50 [37]: 3 µM | TGI [37]: > 50.5 µM | GI50 [38]: 0.115 µM | TGI [38]: 3.13 µM | GI50 [39]: 9.61 µM | TGI [39]: 35.5 µM | GI50 [40]: 2.46 µM | TGI [40]: 35.4 µM | GI50 [41]: 16.8 µM | TGI [41]: > 51.8 µM | GI50 [42]: 2.42 µM | TGI [42]: 21.3 µM | GI50 [43]: 0.933 µM | TGI [43]: > 42.7 µM | GI50 [44]: 11.4 µM | TGI [44]: > 48.1 µM | GI50 [45]: 28.2 µM | TGI [45]: > 59.2 µM | GI50 [46]: 26 µM | TGI [46]: > 50.6 µM | GI50 [47]: 0.357 µM | TGI [47]: 17.7 µM | GI50 [48]: 0.438 µM | TGI [48]: 28.6 µM | GI50 [49]: 1.47 µM | TGI [49]: 23.1 µM | GI50 [50]: 0.304 µM | TGI [50]: 35.3 µM | GI50 [51]: 6.97 µM | TGI [51]: 39.7 µM | GI50 [52]: 10.7 µM | TGI [52]: 52.3 µM | GI50 [53]: 0.853 µM | TGI [53]: > 44.7 µM | GI50 [54]: 4.42 µM | TGI [54]: 33.5 µM | GI50 [55]: < 0.01 µM | TGI [55]: 16.2 µM | GI50 [56]: 2.04 µM | TGI [56]: 25.3 µM | GI50 [57]: 15.4 µM | TGI [57]: 42.7 µM | GI50 [58]: 2.18 µM | TGI [58]: > 44.9 µM
